The record followed here is US12083101B2, “Biaryl derivatives as YAP/TAZ-TEAD protein-protein interaction inhibitors” (Novartis AG, priority 2020, dated 2024).

Experiment [1] has as its system NCI-H2052 Tet-On shYAP_2371 pLenti6 MCAT_Luc cells. The experiment is described as follows: Proliferation assay (resazurin), NCI-H2052. The experiment is classed as cell-based. Conditions: 72 hours incubation. The gist of the method:
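The NCI-H2052 line carries a Tet-inducible shRNA against the YAP1 3′UTR and an MCAT luciferase reporter. The day after seeding, it received eleven 2-fold compound dilutions at 0.1% DMSO, and viability was read by resazurin fluorescence.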
For orientation: The colour change of resazurin is a common sign of viable cells or microbes.

Experiment [2] deals with NCI-H2052 Tet-On shYAP_2371 pLenti6 MCAT_Luc cells (YAP-dependent transcription). The experiment in a line: YAP reporter gene activity assay (MCAT-luciferase), NCI-H2052. Format: cell-based. Conditions: 24 hours incubation, BrightGlo luminescence. The gist of the method: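 Luminescence was read 5 min after BrightGlo, following 24 h at 37 °C of compound exposure (eleven 2-fold dilutions, DMSO normalized to 0.1%). Cells were NCI-H2052 with a YAP-responsive MCAT-luciferase and a Tet-inducible shRNA against YAP1 3′UTR. Cell-free background was removed, values were normalized to vehicle, and IC50 was fitted with four parameters.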

Experiment [3] concerns MKN-45/Ubc-luc cells. The experiment in a line: Proliferation assay (resazurin), MKN-45. Format: cell-based. Conditions: 72 hours incubation.
Experiment [4] concerns the target Avi-humanTEAD4 217-434 / Cy5 labeled humanYAP 60-100 (Homo sapiens (Human), UniProt Q15561). The experiment in a line: TR-FRET YAP-TEAD4 in-vitro biochemical assay. The experiment is classed as binding. Conditions: 1 nM Avi-humanTEAD4 217-434, 20 nM Cy5-humanYAP 60-100, 1 h room temperature.
For experiment [5], the system named is MKN-45/Ubc-luc cells. The experiment is described as follows: Reporter gene specificity control (Ubc-luciferase), MKN-45.
Where [6] appears, read: read-out: Reporter gene assay MKN-45 IC50, MKN-45/Ubc-luc cells (YAP deleted, specificity control), 24 hours incubation.

Where two headings read alike, the source gives them in different places.

Chain of Avi-humanTEAD4 217-434 / Cy5 labeled humanYAP 60-100 (Q15561 217-434): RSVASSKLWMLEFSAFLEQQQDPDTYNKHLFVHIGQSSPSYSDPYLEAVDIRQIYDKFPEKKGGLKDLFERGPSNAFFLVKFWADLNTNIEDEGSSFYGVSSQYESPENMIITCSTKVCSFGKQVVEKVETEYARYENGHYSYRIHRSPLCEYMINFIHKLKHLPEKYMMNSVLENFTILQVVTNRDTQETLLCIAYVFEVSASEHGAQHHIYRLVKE

In general, GI50 refers to the concentration giving 50% growth inhibition. In the case of `COc1ccc(C(N)=O)c(-c2c(Cl)ccc3c2C[C@@](CN[C@H]2CC[C@H](O)CC2)(c2ccccc2)O3)c1F` (relative stereo) [Example 27a, 2-((2S,4S)-5-Chloro-2-(((trans-4-hydroxycyclohexyl)amino)methyl)-2-phenyl-2,3-dihydrobenzofuran-4-yl)-3-fluoro-4-methoxybenzamide], the GI50 in experiment [1] is 81 nM; in the experiment with MKN-45/Ubc-luc cells [3] it was greater than 10 µM. The figures for the IC50 (in experiment [2]; in experiment [4]; in the experiment with MKN-45/Ubc-luc cells [5] (setting [6])) were 26 nM, 1 nM and greater than 10 µM, respectively.
Turning to `COc1ccc(C(N)=O)c(-c2c(Cl)ccc3c2C[C@@](CN[C@H]2CC[C@@H](O)CC2)(c2ccccc2)O3)c1F` (relative stereo) [Example 27b, 2-((2S,4S)-5-chloro-2-(((cis-4-hydroxycyclohexyl)amino)methyl)-2-phenyl-2,3-dihydrobenzofuran-4-yl)-3-fluoro-4-methoxybenzamide], the GI50 in experiment [1] is 182 nM; in the experiment with MKN-45/Ubc-luc cells [3], greater than 10 µM. Moreover, the IC50 in experiment [2] is 78 nM; in experiment [4], 1 nM; in the experiment with MKN-45/Ubc-luc cells [5] (setting [6]), greater than 10 µM.
Turning to `COc1ccc(C(N)=O)c(-c2c(Cl)ccc3c2C[C@@](CN[C@H]2CC[C@H](C(=O)O)CC2)(c2ccccc2)O3)c1F` (relative stereo) [Example 28a, (Trans)-4-((((2S,4S)-4-(6-carbamoyl-2-fluoro-3-methoxyphenyl)-5-chloro-2-phenyl-2,3-dihydrobenzofuran-2-yl)methyl)amino)cyclohexanecarboxylic acid], the results for the GI50 (in experiment [1]; with MKN-45/Ubc-luc cells [3]) were 224 nM and greater than 10 µM, respectively. For the same molecule, the IC50 is 86 nM in experiment [2], 3 nM in experiment [4] and greater than 10 µM in the experiment with MKN-45/Ubc-luc cells [5] (setting [6]).
On to `COc1ccc(C(N)=O)c(-c2c(Cl)ccc3c2C[C@@](CN[C@H]2CC[C@@H](C(=O)O)CC2)(c2ccccc2)O3)c1F` (relative stereo) [Example 28b, (cis)-4-((((2S,4S)-4-(6-carbamoyl-2-fluoro-3-methoxyphenyl)-5-chloro-2-phenyl-2,3-dihydrobenzofuran-2-yl)methyl)amino)cyclohexanecarboxylic acid], for which the GI50 in experiment [1] was 148 nM; with MKN-45/Ubc-luc cells [3] it was greater than 10 µM. Besides, the IC50 was 55 nM in experiment [2], 3 nM in experiment [4] and greater than 10 µM in the experiment with MKN-45/Ubc-luc cells [5] (setting [6]).
`NC(=O)c1ccc(OC(F)F)c(F)c1-c1c(Cl)ccc2c1[C@H](O)[C@@](CN[C@H]1CC[C@H](O)CC1)(c1ccccc1)O2` (relative stereo) [Example 94a, 2-((2S,3S,4S)-5-chloro-3-hydroxy-2-((((trans)-4-hydroxycyclohexyl)amino)methyl)-2-phenyl-2,3-dihydrobenzofuran-4-yl)-4-(difluoromethoxy)-3-fluorobenzamide]: the figures for the GI50 (in experiment [1]; in the experiment with MKN-45/Ubc-luc cells [3]) were 68 nM and greater than 10 µM, respectively. The IC50 in experiment [2] was 45 nM; in experiment [4] it was 2 nM; in the experiment on MKN-45/Ubc-luc cells [5] (setting [6]) it was greater than 10 µM.
Turning to `NC(=O)c1ccc(OC(F)F)c(F)c1-c1c(Cl)ccc2c1[C@H](O)[C@@](CN[C@H]1CC[C@@H](O)CC1)(c1ccccc1)O2` (relative stereo) [Example 94b, 2-((2S,3S,4S)-5-chloro-3-hydroxy-2-((((cis)-4-hydroxycyclohexyl)amino)methyl)-2-phenyl-2,3-dihydrobenzofuran-4-yl)-4-(difluoromethoxy)-3-fluorobenzamide], the values for the concentration for 50% growth inhibition (GI50) (in experiment [1]; in the experiment on MKN-45/Ubc-luc cells [3]) were 101 nM and greater than 10 µM, respectively. Moreover, the IC50 was 83 nM in experiment [2], 3 nM in experiment [4] and greater than 10 µM in the experiment with MKN-45/Ubc-luc cells [5] (setting [6]).
Take `C[C@H]1c2c(ccc(Cl)c2-c2c(C(N)=O)ccc(OC(F)F)c2F)O[C@]1(CN[C@H]1CC[C@@](C)(O)CC1)c1ccccc1` (relative stereo) [Example 104a, 2-((2S,3S,4S)-5-chloro-2-((((cis)-4-hydroxy-4-methylcyclohexyl)amino)methyl)-3-methyl-2-phenyl-2,3-dihydrobenzofuran-4-yl)-4-(difluoromethoxy)-3-fluorobenzamide]: the GI50 in experiment [1] worked out at 144 nM; in the experiment on MKN-45/Ubc-luc cells [3], 6.2 µM. In addition, the IC50 in experiment [2] is 35 nM; in experiment [4] it was 3 nM; with MKN-45/Ubc-luc cells [5] (setting [6]) it was greater than 10 µM.
With `C[C@H]1c2c(ccc(Cl)c2-c2c(C(N)=O)ccc(OC(F)F)c2F)O[C@]1(CN[C@H]1CC[C@](C)(O)CC1)c1ccccc1` (relative stereo) [Example 104b, 2-((2S,3S,4S)-5-chloro-2-((((trans)-4-hydroxy-4-methylcyclohexyl)amino)methyl)-3-methyl-2-phenyl-2,3-dihydrobenzofuran-4-yl)-4-(difluoromethoxy)-3-fluorobenzamide], the figures for the GI50 (in experiment [1]; in the experiment with MKN-45/Ubc-luc cells [3]) were 55 nM and greater than 10 µM, respectively. Moreover, the IC50 is 22 nM in experiment [2], 2 nM in experiment [4] and greater than 10 µM in the experiment with MKN-45/Ubc-luc cells [5] (setting [6]).
Regarding `NC(=O)c1ccc(OCCO)c(F)c1-c1c(Cl)c(F)cc2c1C[C@@](CN[C@H]1C[C@@H](C(F)F)C1)(c1ccccc1)O2` (relative stereo) [Example 140a, 2-((2S,4S)-5-Chloro-2-((((cis)-3-(difluoromethyl)cyclobutyl)amino)methyl)-6-fluoro-2-phenyl-2,3-dihydrobenzofuran-4-yl)-3-fluoro-4-(2-hydroxyethoxy)benzamide], the results for the 50% growth inhibitory concentration (GI50) (in experiment [1]; in the experiment with MKN-45/Ubc-luc cells [3]) were 28 nM and greater than 10 µM, respectively. Also, the IC50 in experiment [2] is 23 nM; in experiment [4], 4 nM; in the experiment on MKN-45/Ubc-luc cells [5] (setting [6]), greater than 10 µM.
For the molecule `NC(=O)c1ccc(OCCO)c(F)c1-c1c(Cl)c(F)cc2c1C[C@@](CN[C@H]1C[C@H](C(F)F)C1)(c1ccccc1)O2` (relative stereo) [Example 140b, 2-((2S,4S)-5-chloro-2-((((trans)-3-(difluoromethyl)cyclobutyl)amino)methyl)-6-fluoro-2-phenyl-2,3-dihydrobenzofuran-4-yl)-3-fluoro-4-(2-hydroxyethoxy)benzamide], the GI50 in experiment [1] is 29 nM; with MKN-45/Ubc-luc cells [3] it was greater than 10 µM. In addition, the figures for the IC50 (in experiment [2]; in experiment [4]; in the experiment on MKN-45/Ubc-luc cells [5] (setting [6])) were 28 nM, 6 nM and greater than 10 µM, respectively.
For the molecule `COc1ccc(C(N)=O)c(-c2c(Cl)ccc3c2C[C@@](CN)(c2ccccc2)O3)c1F` (single isomer, unassigned) [Example 5a], the GI50 in experiment [1] was 280 nM; in the experiment with MKN-45/Ubc-luc cells [3], greater than 10 µM. The IC50 was 130 nM in experiment [2], 5 nM in experiment [4] and greater than 20 µM in the experiment on MKN-45/Ubc-luc cells [5] (setting [6]).
For `COc1ccc(C(N)=O)c(-c2c(Cl)ccc3c2C[C@@](CN)(c2ccccc2)O3)c1F` (single isomer, unassigned) [Example 5b], the GI50 in experiment [1] was greater than 10000 nM; in the experiment on MKN-45/Ubc-luc cells [3], greater than 10 µM. The IC50 in experiment [2] was greater than 10000 nM; in experiment [4], 23300 nM; with MKN-45/Ubc-luc cells [5] (setting [6]), greater than 10 µM.
With `CC(=O)NC1CCC(NC[C@@]2(c3ccccc3)Cc3c(cc(F)c(Cl)c3-c3c(C(N)=O)ccc(OC(F)F)c3F)O2)CC1` (single isomer, unassigned) [Example 56a], the GI50 in experiment [1] (Homo sapiens, NCI-H2052, 72 h) is 195 nM; in the experiment with MKN-45/Ubc-luc cells [3] (Homo sapiens), greater than 10 µM. Moreover, the IC50 in experiment [2] was 70 nM; in experiment [4] it was 2 nM; in the experiment on MKN-45/Ubc-luc cells [5] (Homo sapiens, MKN-45, 24 h, read-out: Reporter gene assay MKN-45 IC50 [μM], MKN-45/Ubc-luc cells (YAP deleted, specificity control), 24 hours incubation), greater than 10 µM.
In the case of `CC(=O)NC1CCC(NC[C@@]2(c3ccccc3)Cc3c(cc(F)c(Cl)c3-c3c(C(N)=O)ccc(OC(F)F)c3F)O2)CC1` (single isomer, unassigned) [Example 56b], the 50% growth inhibitory concentration (GI50) was 372 nM in experiment [1] and greater than 10 µM in the experiment with MKN-45/Ubc-luc cells [3]. In addition, the IC50 came out at 194 nM in experiment [2], 11 nM in experiment [4] and 7.6 µM in the experiment on MKN-45/Ubc-luc cells [5] (setting [6]).
